Reference: patent US10288602B2, “Screening method, a kit, a method of treatment and a compound for use in a method of treatement” (ATROGI AB, priority 2013, dated 2019)

Tests used:
CHO GLUT4 cells = assay: Glucose uptake (3H-2-deoxy-glucose) in CHO GLUT4 cells; assay type: cell-based, Chinese Hamster; details: for mTORC2 activity represented by glucose uptake: CHO GLUT4 cells, reference: cells not contacted
Experimental: (§1) Glucose uptake was measured in CHO Glut 4 (Chinese Hamster Ovary cells transfected to overexpress GLUT4) and L6-myotubes grown in 12-well plates using ^3H-2-dexoy-glucose as previously described (Nevzorova et al. 2006, Dehvari et al. 2011, Nevzorova et al. 2002) with minor modifications. L6-cells were differentiated for 7-8 days before the experiment, serum-starved over night in media containing 0.5% fatty-acid free BSA and stimulated with test compounds for totally 2 h, unless otherwise stated. The test 3′ compounds used in the experiment were: N-[5-(4,5-dihydro-1H-imidazol-2yl)-2-hydroxy-5,6,7,8-tetrahydro naphthalen-1-yl] methanesulfonamide hydrobromide (A61603), noradrenaline (NA), insulin, oxymetazoline (oxy), and 5-(methylamino)-2-({(2R,3R,6S,8S,9R,11R)-3,9,11-trimethyl-8-[(S)-1-methyl-2-oxo-2-(l H-pyrrol-2-yl)ethyl]-1,7-dioxaspiro[5.5]undec-2-yl}methyl)-1,3-benzoxazole-4-carboxylic acid (also referred to as Calcimycin) (A23187).
(§2) Inhibitors were added 30 min before stimulation. 25 min before the end of the experiment, cells were washed twice in warm PBS and kept in glucose-free DMEM together with the different drugs for 10 min before 50 nM ^3H-2-deoxy-glucose was added for additional 6 minutes. The reaction was terminated by washing the cells in ice-cold PBS three times. Cells were lysed in 0.2 NaOH for 1 h in 60° C. and the radioactivity detected by liquid scintillation (scintillation buffer Emulsifier Safe, Perking Elmer and analysis is a Tri-Carb® 2800TR from Perkin Elmer).

Akt [1] = assay: Western blot of Akt phosphorylation (T308, S473) in CHO GLUT4 cells; assay type: cell-based, Chinese Hamster; details: for Akt p-S473 % basal: CHO GLUT4, 10 min, approximate values from FIG. 6B, insulin, NA, oxy 0.1 μM, A61603 0.01 μM; for Akt activity represented by phosphorylation of Akt: CHO GLUT4 cells, FIG. 6, 10 min, reference: cells not contacted
Experimental: (§3) L6 myotubes (FIG. 5) and CHO GLUT4 cells (FIG. 6) in 12-well plates were used for western blotting. Cells were serum-starved overnight before experiment. Immunoblotting was performed as previously described (Nevzorova et al. 2006, […] et al. 2011, Nevzorova et al. 2002). Primary antibodies (Akt, phospho-Akt T308, phospho-Akt S473, AS 160, GLUT4, phospho-mTOR […], phospho-mTOR […], raptor, and rictor diluted 1:1000) were all from Cell Signaling Technology, Inc and were detected using a secondary antibody (horseradish peroxidase-linked anti-rabbit IgG, from Cell Signaling Technology, Inc) diluted 1:2000 and measured using enhanced chemiluminescence (ECL, Amersham Biosciences).

L6 myotubes = assay: Glucose uptake (3H-2-deoxy-glucose) in L6 myoblasts and L6 myotubes; assay type: cell-based; details: for effect on GPCR and insulin-stimulated glucose uptake: indinavir 100M; for glucose uptake in L6 myoblasts and L6 myotubes / mTORC2 activity represented by glucose uptake: FIG. 2; for mTORC2 activity represented by glucose uptake: L6 myoblasts and myotubes, reference: cells not contacted
Experimental: as §1, §2

Akt [2] = assay: Western blot of Akt phosphorylation (T308, S473) in L6 myotubes; assay type: cell-based; details: for Akt activity represented by phosphorylation of Akt: FIG. 5, 10 min, 30 min, 2 h, reference: cells not contacted
Experimental: as §3

mTORC2 = assay: Western blot of mTOR phosphorylation (S2448, S2481) in L6 myotubes; assay type: cell-based; details: for mTORC2 activity represented by phosphorylation of mTORC2: FIG. 13, reference: cells not brought into contact with the compound
Experimental: as §3

rat soleus muscle = assay: 3-O-methylglucose uptake in intact rat soleus muscle ex vivo; details: 30 min preincubation, then insulin or isoproterenol 1 h; FIG. 11
Experimental: Soleus muscles were dissected from Sprague-Dawley rats and suspended in Krebs-Henseleit bicarbonate (KHB) buffer (118.5 mM NaCl, 4.7 mM KCl, 1.2 mM KH2PO4, 25 mM NaHCO3, 2.5 mM CaCl2, 1.2 mM MgSO, 5 mM HEPES) in organ baths containing 30 ml KHB containing 5 mM glucose and 15 mM mannitol, bubbled with 95% O2/5% CO2 (pH 7.4) and maintained at 37° C. […] Muscles were rinsed with KHB (20 mM mannitol) for 10 min, then incubated in KHB (8 mM 3-O-methylglucose and 12 mM mannitol with 438 μCi/mmol 3-O-methyl[^3H]glucose (80.2 Ci/mmol; PerkinElmer) and 42 μCi/mmol [^14C] mannitol (58.8 mCi/mmol; PerkinElmer, USA)) for 12 min. Muscles were then rinsed with PBS and frozen in liquid nitrogen, weighed and dissolved in 1 mL of 0.5M NaOH at 60′C. ^3H and ^14C were measured by liquid scintillation counting. Total muscle 3-O-methylglucose and extracellular space were measured as described previously (23). Intracellular 3-O-methylglucose accumulation was calculated by: (Total muscle 3-O-methylglucose)−(extracellular 3-O-methylglucose)=intracellular 3-O-methylglucose. This is then expressed as a rate of 3-O-methylglucose transport per mL of intracellular water per hour.

skeletal muscle = assay: [3H]-2DG glucose uptake in mouse skeletal muscle in vivo; details: WT 129sv mice, 10 mg/kg, 10 min before insulin or isoproterenol 1 mg/kg; FIG. 12
Experimental: After 20 min [^3H]-2DG (130 μCi/kg) was injected. Muscles were sampled 1 h later and lysed in 0.5M NaOH.
Glucose uptake was measured by liquid scintillation counting.

GLUT4 = GLUT4 in plasma membrane (GLUT4 translocation) in L6 myotubes; assay type: cell-based; details: for mTORC2 activity represented by GLUT translocation: FIG. 20, reference: cells not contacted
[3] = test system: other members of the PI3K/PIKK family; details: at up to 1 μM; Garcia-Martinez et al. 2009; cited from earlier work
[4] = Glucose tolerance test in Goto-Kakizaki GK-rats; assay type: in vivo, rat; details: in drinking water 4 days, 60, 90 and 120 minutes after glucose, vs untreated animals, FIG. 21
Experimental: Goto-Kakizaki GK-rats, showing impaired glucose tolerance form an established model of type 2 diabetes. GK-rats were split into two groups, one of which was treated with the GPCR agonist clenbuterol in the drinking water for 4 days prior to a glucose tolerance test.

AS160 = assay: Western blot of AS160 phosphorylation (T642) in L6 myotubes; assay type: cell-based; details: FIG. 7; for Akt activity represented by phophorylation of Akt substrate: AS160 p-T642, L6 myotubes, reference: cells not contacted; for AS160 phosphorylation: L6 myotubes
Experimental: as §3

PIP3 = PIP3 immunofluorescence in permeabilised L6 cells; assay type: cell-based; details: FIG. 3
Experimental: PIP3 was visualized in permeabilised L6 cells (0.5% Triton X-100 in water, 15 min) blocked with 10% rat serum in TBS overnight at 4° C. Mouse anti-PIP3 conjugated to a biotinylated goat anti-mouse IgM diluted 1:100) was incubated for 1 h at 37° C., cells washed three times (10% rat serum in TBS), secondary antibody added (streptavidin-Alexa Fluor® 488 1:2000 in TBS, 30 min, 37° C.). Slides were mounted with ProLong® Gold antifade reagent (Invitrogen).

[5] = L6 myotubes, FIG. 19, cytochalasin B 10 μM

Compound: Br.CS(=O)(=O)Nc1c(O)ccc2c1CCCC2C1=NCCN1 (centres unmarked) [A61603, N-[5-(4,5-dihydro-1H-imidazol-2yl)-2-hydroxy-5,6,7,8-tetrahydronaphthalen-1-yl] methanesulfonamide hydrobromide]
- mTORC2 activity represented by glucose uptake (CHO GLUT4 cells; FIG. 1): + (1)
- Akt p-S473 % basal (Akt [1]): 135 % basal
- Akt activity represented by phosphorylation of Akt (Akt [1]): − (6)

Compound: CCN(CC)CCCCN1c2ccccc2Oc2ccc(Cl)cc21 [Akt inhibitor X]
- effect on insulin-stimulated glucose uptake (L6 myotubes; L6 myotubes, inhibitor 10 μM, FIG. 4): inhibited
- effect on GPCR-mediated glucose uptake (L6 myotubes; L6 myotubes, inhibitor 10 μM, isoproterenol, FIG. 4): not GPCR-mediated glucose uptake

Compound: O=C(Nc1cccc(Nc2ncc(Br)c(NCCc3cnc[nH]3)n2)c1)N1CCCC1 [BX-912]
- effect on insulin-mediated T308-Akt phosphorylation (Akt [2]; L6 myotubes, FIG. 8): significantly inhibited
- effect on S473-Akt phosphorylation (Akt [2]; L6 myotubes, insulin, FIG. 8): no effect

Compound: COc1ccc(-c2ccc3c(N4CCOCC4)nc(N4C[C@@H](C)O[C@@H](C)C4)nc3n2)cc1CO [KU0063794]
- effect on insulin- and GPCR-stimulated mTOR phosphorylation at S2448 and S2481 (mTORC2; FIG. 13): abolished
- effect on insulin and GPCR stimulated glucose-uptake in intact soleus muscle ex-vivo (rat soleus muscle): inhibits
- effect on GPCR stimulated glucose-uptake (CHO GLUT4 cells; CHO glut 4, FIG. 10B): inhibits
- effect on GPCR stimulated glucose-uptake (L6 myotubes; L6 myotubes, FIG. 10A): inhibits
- effect on insulin and GPCR stimulated glucose-uptake in skeletal muscle in-vivo (skeletal muscle): inhibits
- effect on insulin and GPCR stimulated GLUT4 translocation (GLUT4; FIG. 20): significantly inhibits
- inhibition of other members of the PI3K/PIKK family [3]: does not inhibit
- effect on insulin-stimulated Akt phosphorylation at S473 (Akt [2]; 100 nM, L6 myotubes, FIG. 9): decreased
- effect on insulin-stimulated phosphorylation of Akt at T308 (Akt [2]; 100 nM, L6 myotubes, FIG. 9): no effect

Compound: CC(C)(C)NCC(O)c1cc(Cl)c(N)c(Cl)c1 (centres unmarked) [clenbuterol]
- blood glucose levels in glucose tolerance test [4]: greatly improved

Compound: C=C1[C@@H](C)[C@H]2[C@H](Cc3ccccc3)NC(=O)[C@]23OC(=O)/C=C/[C@H](O)CCC[C@@H](C)C/C=C/[C@H]3[C@@H]1O [cytochalasin B]
- block of basal glucose uptake (L6 myotubes; L6 myotubes, FIG. 19, cytochalasin B 10 μM, indinavir): ~40%
- effect on GPCR and insulin-stimulated glucose uptake (L6 myotubes; [5]): markedly reduced

Compound: CC(C)(C)NC(=O)[C@@H]1CN(Cc2cccnc2)CCN1C[C@@H](O)C[C@@H](Cc1ccccc1)C(=O)N[C@H]1c2ccccc2C[C@H]1O [indinavir]
- effect on GPCR and insulin-stimulated glucose uptake (L6 myotubes; [5]): markedly reduced

Compound: CC(C)NCC(O)c1ccc(O)c(O)c1 (centres unmarked) [isoproterenol]
- phosphorylation of mTOR (sites S2448, S2481) (mTORC2; FIG. 13): phosphorylation only at S2481
- mTORC2 activity represented by phosphorylation of mTORC2 (mTORC2): + (13)
- mTORC2 activity represented by glucose uptake (CHO GLUT4 cells; FIG. 1): + (1, 2)
- glucose uptake in L6 myoblasts and L6 myotubes (L6 myotubes): increased
- mTORC2 activity represented by glucose uptake (L6 myotubes): + (1, 2)
- Akt activity represented by phophorylation of Akt substrate (AS160): − (7)
- AS160 phosphorylation (AS160): not isoproterenol treatment
- mTORC2 activity represented by GLUT translocation (GLUT4): + (20)
- Akt activity represented by phosphorylation of Akt (Akt [2]; L6 myotubes): − (5)
- PIP3 content (PIP3): not isoproterenol increased PIP3 content

Compound: NC[C@H](O)c1ccc(O)c(O)c1 [noradrenaline]
- mTORC2 activity represented by glucose uptake (CHO GLUT4 cells; FIG. 1): + (1)
- glucose uptake in CHO glut 4 (CHO GLUT4 cells; FIG. 1): increases
- Akt p-S473 % basal (Akt [1]): 130 % basal
- Akt activity represented by phosphorylation of Akt (Akt [1]): − (6)

Compound: Cc1cc(C(C)(C)C)c(O)c(C)c1CC1=NCCN1 [oxymetazoline]
- mTORC2 activity represented by glucose uptake (CHO GLUT4 cells; FIG. 1): + (1)
- Akt p-S473 % basal (Akt [1]): 135 % basal
- Akt activity represented by phosphorylation of Akt (Akt [1]): − (6)

Compound: CO[C@H]1C[C@@H]2CC[C@@H](C)[C@@](O)(O2)C(=O)C(=O)N2CCCC[C@H]2C(=O)O[C@H]([C@H](C)C[C@@H]2CC[C@@H](O)[C@H](OC)C2)CC(=O)[C@H](C)/C=C(\C)[C@@H](O)[C@@H](OC)C(=O)[C@H](C)C[C@H](C)/C=C/C=C/C=C/1C [rapamycin]
- effect on insulin mediated or isoproterenol mediated glucose uptake (L6 myotubes; short term treatment, L6 myotubes, FIG. 14): no effect

Compound: insulin
- phosphorylation of mTOR (sites S2448, S2481) (mTORC2; FIG. 13): phosphorylation of mTOR at both S2448 and S2481
- mTORC2 activity represented by phosphorylation of mTORC2 (mTORC2): + (13)
- glucose uptake in L6 myoblasts and L6 myotubes (L6 myotubes): increased
- mTORC2 activity represented by glucose uptake (L6 myotubes): + (2)
- Akt p-S473 % basal (Akt [1]): 170 % basal
- Akt activity represented by phosphorylation of Akt (Akt [1]): + (5, 6)
- Akt activity represented by phophorylation of Akt substrate (AS160): + (7)
- AS160 phosphorylation (AS160): phosphorylated
- mTORC2 activity represented by GLUT translocation (GLUT4): + (20)
- Akt activity represented by phosphorylation of Akt (Akt [2]; L6 myotubes): + (5, 6)
- Akt phosphorylation at T308 and S473 (Akt [2]; all time points examined, FIG. 5, FIG. 6): increased
- PIP3 content (PIP3): increased
